# According to patent US20110123988A1, “ANTISENSE COMPOUNDS AND METHODS FOR DIAGNOSTIC IMAGING” (GENESEEN LLC, priority 2003, published 2011):
# Test system: cells expressing IGFR1 (murine BALB/c 3T3 cells; p6 cells overexpressing a transfected human IGFR1 gene; human Jurkat cells as negative control)
# Experiment: Cellular uptake of PNA-peptide conjugates by cells in vitro
# Type: cell-based
# Conditions: versus control PNA Gly-CCGCTTCCTTTC without peptide; measured with both the 14C-conjugate and the fluoresceinyl-conjugate; BALB/c 3T3, p6 and Jurkat cells
# Excerpt: To improve cellular uptake of an IGFR1 antisense sequence targeted against IGFR1 mRNA codons 706-709 (CCGCTTCCTTTC, SEQ ID NO:42; Ullrich et al., 1986, EMBO J. 5:10:2503-2512), a PNA with this base sequence was conjugated to a D-amino acid IGF1 peptide having the sequence (Gly)4D(Cys-Ser-Lys-Cys). This peptide binds selectively to the cell surface receptor for insulin-like growth factor 1 (IGFR1), which is overexpressed on malignant cells (Pietrzkowski et al., 1992, Mol. Cell. Biol. 12:9:3883-3889). The same PNA was also conjugated to a control peptide of the sequence (Gly)4D(Cys-Ala-Ala-Cys), which is not expected to bind to cells expressing IGFR1. The IGF1 D-peptide and control peptide was assembled on (4-methyl benzhydrypamine (MBHA) resin, and then the PNA was extended as a continuation of the peptide. The IGF1 peptide and control peptide sequences were radiolabeled with ^14C or fluorescently labeled with fluorescein isothiocyanate (Basu & Wickstrom, 1997, Bioconj. Chem. 8:4:481-488).
substance,measurement,value
"Gly-CCGCTTCCTTTC-(Gly)4D(CysSerLysCys) (PNA, Gly, (Gly)4, D-peptide, 14C or fluorescein label, chemistry not fully specified) [labeled with 14C or fluorescein]",cellular uptake,"much higher uptake than the control Gly-CCGCTTCCTTTC, but only in cells expressing IGFR1"
